In ChEMBL document CHEMBL3132804, “Synthesis and biological evaluation of novel quinoxalinone-based HIV-1 reverse transcriptase inhibitors” (Medchemcomm, 2014):

Tests used:
[1] = test system: Human immunodeficiency virus 1; assay: Antiviral activity against wild type HIV1 VSVG infected in 293ET cells assessed as inhibition of viral replication by luciferase reporter gene assay; type: functional, organism-based
[2] = test system: Human immunodeficiency virus 1; assay: Selectivity ratio of IC50 for HIV1 VSVG harboring reverse transcriptase Y181C mutant to IC50 for wild type HIV1 VSVG; type: functional
[3] = test system: Human immunodeficiency virus 1; assay: Selectivity ratio of IC50 for HIV1 VSVG harboring reverse transcriptase K103N mutant to IC50 for wild type HIV1 VSVG; type: functional
[4] = test system: Human immunodeficiency virus 1; assay: Antiviral activity against HIV1 VSVG harboring reverse transcriptase Y181C mutant infected in 293ET cellsassessed as inhibition of viral replication by luciferase reporter gene assay; type: functional, organism-based
[5] = test system: Human immunodeficiency virus 1; assay: Antiviral activity against HIV1 VSVG harboring reverse transcriptase K103N mutant infected in 293ET cells assessed as inhibition of viral replication by luciferase reporter gene assay; type: functional, organism-based
[6] = Human immunodeficiency virus 1, VSVG, 293ET, read-out: IC50

SMILES | IC50 [1, 6] [µM] | Ratio IC50 [2] | Ratio IC50 [3] | IC50 [4] [µM] | IC50 [5] [µM] | IC50 ([1]; 293et)
COC(=O)c1sc(-c2cccs2)cc1S(=O)(=O)N1c2cc(Cl)ccc2NC(=O)C1C (stereo unspecified) | 6.53 |  |  |  |  | 
COC(=O)c1sc(-c2ccco2)cc1S(=O)(=O)N1c2cc(Cl)ccc2NC(=O)C1C (stereo unspecified) | 1.97 | >5 | >5 | > 10 | > 10 | 
CC1C(=O)Nc2ccc(Cl)cc2N1S(=O)(=O)c1ccsc1C(=O)O (stereo unspecified) |  |  |  |  |  | Not Active
CC1C(=O)Nc2ccc(Cl)cc2N1S(=O)(=O)c1cc(Cl)sc1C(=O)O (stereo unspecified) |  |  |  |  |  | Not Active
CC(C)OC(=O)c1sccc1S(=O)(=O)N1c2cc(Cl)ccc2NC(=O)C1C (stereo unspecified) | 1.09 | >9 | >9 | > 10 | > 10 | 
CC(C)=CCOC(=O)c1sccc1S(=O)(=O)N1c2cc(Cl)ccc2NC(=O)C1C (stereo unspecified) | 0.77 | >13 | >13 | > 10 | > 10 | 
CC(C)OC(=O)c1sc(Cl)cc1S(=O)(=O)N1c2cc(Cl)ccc2NC(=O)C1C (stereo unspecified) | 5.55 |  |  |  |  | 
CON(C)C(=O)c1sccc1S(=O)(=O)N1c2cc(Cl)ccc2NC(=O)C1C (stereo unspecified) |  |  |  |  |  | Not Active
CC(C)NC(=O)c1sccc1S(=O)(=O)N1c2cc(Cl)ccc2NC(=O)C1C (stereo unspecified) |  |  |  |  |  | Not Active
CC1C(=O)Nc2ccc(Cl)cc2N1S(=O)(=O)c1ccsc1CO (stereo unspecified) |  |  |  |  |  | Not Active
CC1C(=O)Nc2ccc(Cl)cc2N1S(=O)(=O)c1cc(Cl)sc1CO (stereo unspecified) |  |  |  |  |  | Not Active
CC1C(=O)Nc2ccc(Cl)cc2N1S(=O)(=O)c1ccsc1C=O (stereo unspecified) |  |  |  |  |  | Not Active
CC1C(=O)Nc2ccc(Cl)cc2N1S(=O)(=O)c1cc(Cl)sc1C=O (stereo unspecified) |  |  |  |  |  | Not Active
CC1C(=O)Nc2ccc(Cl)cc2N1S(=O)(=O)c1ccsc1/C=N\c1nccs1 (stereo unspecified) |  |  |  |  |  | Not Active
CC1C(=O)Nc2ccc(Cl)cc2N1S(=O)(=O)c1cc(Cl)sc1/C=N\c1nccs1 (stereo unspecified) |  |  |  |  |  | Not Active
CC1C(=O)Nc2ccc(Cl)cc2N1S(=O)(=O)c1cc(Cl)sc1-c1cnco1 (stereo unspecified) | 4.44 |  |  |  |  | 
CC1C(=O)Nc2ccc(Cl)cc2N1S(=O)(=O)c1ccsc1CNc1nccs1 (stereo unspecified) |  |  |  |  |  | Not Active
CC1C(=O)Nc2ccc(Cl)cc2N1S(=O)(=O)c1cc(Cl)sc1CNc1nccs1 (stereo unspecified) |  |  |  |  |  | Not Active
COC(=O)c1sc(Cl)cc1S(=O)(=O)N1c2cc(Cl)ccc2NC(=O)C1C (stereo unspecified) | 0.07 | >143 | 113 | > 10 | 7.94 | 
COC(=O)c1sc(Br)cc1S(=O)(=O)N1c2cc(Cl)ccc2NC(=O)C1C (stereo unspecified) | 0.13 | >77 | 49 | > 10 | 6.39 | 
COC(=O)c1sc(I)cc1S(=O)(=O)N1c2cc(Cl)ccc2NC(=O)C1C (stereo unspecified) | 0.075 | >133 | 89 | > 10 | 6.68 | 
COC(=O)c1sc(-c2ccccc2)cc1S(=O)(=O)N1c2cc(Cl)ccc2NC(=O)C1C (stereo unspecified) | 9.05 |  |  |  |  | 
COC(=O)c1sc(-c2cccc(OC)c2)cc1S(=O)(=O)N1c2cc(Cl)ccc2NC(=O)C1C (stereo unspecified) | 9.68 |  |  |  |  | 
COC(=O)c1sccc1S(=O)(=O)N1c2cc(Cl)ccc2NC(=O)C1C (stereo unspecified) |  | >50 | 13 | > 10 | 2.6 | 
Cc1ccnc2c1NC(=O)c1cccnc1N2C1CC1 [NEVIRAPINE] | 0.04 | >250 | 32 | > 10 | 1.29 | 
